Target: HCV NS3/4A wild type (wt) (Hepatitis C virus genotype 1b (isolate BK) (HCV), UniProt P26663)
Experiment: Mass spectrometric analysis (MALDI-TOF) of intact protease incubated with test compound
Type: binding
Conditions: 10-fold excess of compound
Experimental: Mass spectrometric analysis of HCV wild type or HCV variant C159S in the presence of test compound is performed. 100 pmols of HCV wild type (Bioenza CA) is incubated with test compound for 1 hr and 3 hrs at 10-fold access of test compound to protein. 1 ul aliquots of the samples (total volume of 4.24 ul) are diluted with 10 ul of 0.1% TFA prior to micro C4 ZipTipping directly onto the MALDI target using Sinapinic acid as the desorption matrix (10 mg/mL in 0.1% TFA:Acetonitrile 50:50). Analyses are performed on a Shimadzu Biotech Axima TOF^2 (Shimadzu Instruments) matrix-assisted-laser desorption/ionization Time-of-Flight (MALDI-TOF) mass spectrometer. The same procedure is carried out on 100 pmols of HCV C159S mutant of HCV protease for 3 hrs at 10-fold excess of test compound to protein.
2 ul aliquots of the samples were diluted with 10 ul of 0.1% TFA prior to micro C4 ZipTipping directly onto the MALDI target using Sinapinic acid as the desorption matrix (10 mg/ml in 0.1% TFA:Acetonitrile 50:50). For intact protein mass measurement the instrument was set in linear mode using a pulsed extraction setting of 24,500 and apomyoglobin as the standard to calibrate the instrument.
2 ul aliquots of the samples were diluted with 10 ul of 0.1% TFA prior to micro […] ZipTipping directly onto the MALDI target using Sinapinic acid as the desorption matrix (10 mg/ml in 0.1% TFA:Acetonitrile 20:80). For intact protein mass measurement the instrument was set in linear mode using a pulsed extraction setting of 24,500 and apomyoglobin as the standard to calibrate the instrument.

C=CC(=O)NC[C@H](NC(=O)[C@@H](NC(=O)c1cnccn1)C1CCCCC1)C(=O)N1C[C@@H]2CCC[C@@H]2[C@H]1C(=O)N[C@@H](CCC)C(=O)C(=O)NC1CC1 [Compound I-11, (1S,3aR,6aS)-2-((S)-3-acrylamido-2-((S)-2-cyclohexyl-2-(pyrazine-2-carboxamido)acetamido)propanoyl)-N—((S)-1-(cyclopropylamino)-1,2-dioxohexan-3-yl)octahydrocyclopenta[c]pyrrole-1-carboxamide]
covalent modification of protein (reaction with compound, mass spectrometry) (3 hr incubation): reacted significantly to produce a new species | mass increase of new protein species versus protein with no compound (3 hr incubation): approximately 703 Da

CCC[C@H](NC(=O)[C@@H]1[C@H]2CCC[C@H]2CN1C(=O)[C@@H](NC(=O)[C@@H](NC(=O)c1cnccn1)C1CCCCC1)C(C)(C)C)C(=O)C(=O)NC1CC1 [telaprevir, reference compound]
covalent modification of protein (reaction with compound, mass spectrometry) (1 hr incubation): no reaction
